± gives the expanded uncertainty stated by the source.
Conditions: Liquid, Vibrating tube method

Question: Which results are given for `Cc1ccccc1O` [2-methylphenol]?
Answer: mass density (313.2 K, 1022 kPa): 1027.5 ± 0.2 kg/m3; mass density (313.2 K, 2031 kPa): 1028.1 ± 0.2 kg/m3; mass density (313.2 K, 3017 kPa): 1028.7 ± 0.2 kg/m3; mass density (313.2 K, 4012 kPa): 1029.2 ± 0.2 kg/m3; mass density (313.2 K, 5018 kPa): 1029.8 ± 0.2 kg/m3; mass density (313.2 K, 6010 kPa): 1030.4 ± 0.2 kg/m3; mass density (313.2 K, 7005 kPa): 1030.9 ± 0.2 kg/m3; mass density (313.2 K, 8006 kPa): 1031.5 ± 0.2 kg/m3; mass density (313.2 K, 9004 kPa): 1032 ± 0.2 kg/m3; mass density (313.2 K, 10005 kPa): 1032.6 ± 0.2 kg/m3; mass density (323.16 K, 1013 kPa): 1018.7 ± 0.2 kg/m3; mass density (323.16 K, 2039 kPa): 1019.3 ± 0.2 kg/m3; mass density (323.16 K, 3007 kPa): 1019.9 ± 0.2 kg/m3; mass density (323.16 K, 4009 kPa): 1020.5 ± 0.2 kg/m3; mass density (323.16 K, 5005 kPa): 1021.1 ± 0.2 kg/m3; mass density (323.16 K, 6004 kPa): 1021.7 ± 0.2 kg/m3; mass density (323.16 K, 6999 kPa): 1022.2 ± 0.2 kg/m3; mass density (323.16 K, 8008 kPa): 1022.8 ± 0.2 kg/m3; mass density (323.16 K, 9002 kPa): 1023.4 ± 0.2 kg/m3; mass density (323.16 K, 10005 kPa): 1024 ± 0.2 kg/m3; mass density (333.1 K, 1010 kPa): 1009.9 ± 0.2 kg/m3; mass density (333.1 K, 2033 kPa): 1010.5 ± 0.2 kg/m3; mass density (333.1 K, 3009 kPa): 1011.1 ± 0.2 kg/m3; mass density (333.1 K, 4014 kPa): 1011.8 ± 0.2 kg/m3; mass density (333.1 K, 5004 kPa): 1012.4 ± 0.2 kg/m3; mass density (333.1 K, 5998 kPa): 1013 ± 0.2 kg/m3; mass density (333.1 K, 7000 kPa): 1013.6 ± 0.2 kg/m3; mass density (333.1 K, 8009 kPa): 1014.2 ± 0.2 kg/m3; mass density (333.1 K, 9004 kPa): 1014.8 ± 0.2 kg/m3; mass density (333.1 K, 10010 kPa): 1015.4 ± 0.2 kg/m3; mass density (343.06 K, 1023 kPa): 1000.8 ± 0.2 kg/m3; mass density (343.06 K, 2024 kPa): 1001.6 ± 0.2 kg/m3; mass density (343.06 K, 3015 kPa): 1002.2 ± 0.2 kg/m3; mass density (343.06 K, 4003 kPa): 1002.9 ± 0.2 kg/m3; mass density (343.06 K, 5009 kPa): 1003.6 ± 0.2 kg/m3; mass density (343.06 K, 6005 kPa): 1004.2 ± 0.2 kg/m3; mass density (343.06 K, 7008 kPa): 1004.8 ± 0.2 kg/m3; mass density (343.06 K, 8003 kPa): 1005.5 ± 0.2 kg/m3; mass density (343.06 K, 8999 kPa): 1006.1 ± 0.2 kg/m3; mass density (343.06 K, 10004 kPa): 1006.7 ± 0.2 kg/m3; mass density (352.99 K, 1043 kPa): 991.9 ± 0.2 kg/m3; mass density (352.99 K, 2000 kPa): 992.6 ± 0.2 kg/m3; mass density (352.99 K, 3034 kPa): 993.3 ± 0.2 kg/m3; mass density (352.99 K, 4015 kPa): 994 ± 0.2 kg/m3; mass density (352.99 K, 5033 kPa): 994.6 ± 0.2 kg/m3; mass density (352.99 K, 6007 kPa): 995.3 ± 0.2 kg/m3; mass density (352.99 K, 7016 kPa): 996 ± 0.2 kg/m3; mass density (352.99 K, 8006 kPa): 996.7 ± 0.2 kg/m3; mass density (352.99 K, 9015 kPa): 997.3 ± 0.2 kg/m3; mass density (352.99 K, 10014 kPa): 998 ± 0.2 kg/m3

Source: the NIST ThermoML archive (doi:10.1021/je400055v)
